US10966976B2, “Methods for inducing an immune response by inhibition of nonsense mediated decay” (MOONSHOT PHARMA LLC, priority 2015, dated 2021)

Columns and labels:
[1] = system: MC38 tumor cells; experiment: MC38 subcutaneous syngeneic tumor model, tumor volume by caliper; format: in vivo, C57BL/6 mice; design: Percent inhibition of tumor volume: concentration or dose not given beside the values; details: for Percent inhibition of tumor volume: vs vehicle group, negative values indicate an increase in tumor volume
Procedure: This Example evaluated the effectiveness of an NMDI alone and in combination with one or more immunotherapy agents for the treatment of tumor-bearing C57BL/6 mice.
Animals: Female 6-8 week old (estimated age at inoculation) C57BL/6 mice were obtained from Shanghai Lingchang Bio-Technology Co. Ltd (LC, Shanghai, China). The animals were housed at 20-26° C. with a 12 hours light and 12 hours darkness cycle.
Cell Culture: MC38 tumor cells were maintained in vitro as a monolayer culture in DMEM medium supplemented with 10% fetal bovine serum at 37° C. in an atmosphere of 5% CO2 in air. The tumor cells were routinely subcultured twice weekly. Cells in an exponential growth phase were harvested and counted for tumor inoculation.
Therapeutic compounds: Anti-PD-1 and anti-CTLA-4 antibodies were obtained from BioXCell as was an anti-CD8 antibody. The nonsense mediated decay inhibitor NMDI14 (4,5-Dimethyl-2-[[2-(1,2,3,4-tetrahydro-6,7-dimethyl-3-oxo-2-quinoxalinyl)acetyl]amino]-3-thiophenecarboxylic acid ethyl ester, Ethyl 2-{[(6,7-dimethyl-3-oxo-1,2,3,4-tetrahydro-2-quinoxalinyl)acetyl]amino}-4,5-dimethyl-3-thiophenecarboxylate) was obtained from ChemBridge Corp. (La Jolla, Calif.).
Tumor Inoculation: Each mouse was inoculated subcutaneously at the right lower flank region with MC38 tumor cells (1×10^6) in 0.1 mL of PBS for tumor development. The treatments were started when the mean tumor size reaches approximately 50 mm^3. The date of tumor cell inoculation was denoted as day 0.
Group assignment: Before grouping and treatment, all animals were weighed and the tumor volumes measured using a caliper. Tumor volume was used as numeric parameter to randomize selected animals into specified groups in order to minimize systematic error. The grouping was performed by using StudyDirector™ software (Studylog Systems, Inc. CA, USA). One optimal randomization design (generated by Matched distribution) showing minimal group to group variation in tumor volume was selected for group allocation.
After tumor cell inoculation, the animals were checked daily for morbidity and mortality as well as any effects of tumor growth and treatments on normal behavior such as mobility, visual estimation of food and water consumption, body weight gain/loss, eye/hair matting and any other abnormal effect. Tumor volumes were measured twice weekly at least in two dimensions using a caliper, and the volume expressed in mm^3 using the formula: V=0.5 a×b^2 where a and b are the long and short diameters of the tumor, respectively.

[2] = system: CD3+ immune cells infiltrating tumor tissue; experiment: Immunohistochemistry of sectioned tumor tissue, immune cell infiltration; format: in vivo, C57BL/6 mice; details: FFPE tumor sections; FIG. 4
Procedure: Immunohistochemistry (IHC): Formalin-fixed paraffin-embedded (FFPE) tissue from tumor samples were sectioned to 4 urn. Antigen retrieval (AR) was conducted at 100° C., in EDTA buffer, at pH 9.0 for 20 min. Primary antibody (diluted with validated concentration), RT 60 min+ secondary antibody (ready-to-use), RT 60 min+Bond Polymer Refine Detection.

## CCOC(=O)c1c(NC(=O)CC2Nc3cc(C)c(C)cc3NC2=O)sc(C)c1C (stereo not drawn) [NMDI14, 4,5-Dimethyl-2-[[2-(1,2,3,4-tetrahydro-6,7-dimethyl-3-oxo-2-quinoxalinyl)acetyl]amino]-3-thiophenecarboxylic acid ethyl ester]
[1]; Day 9
  Percent inhibition of tumor volume: −0.11%
[1]; Day 9 after inoculation, MC38 tumor-bearing C57BL/6 mice, i.p., NMDI14 20 mg/kg QDx3 weeks, antibodies 10 mg/kg (anti-CD8 200 ug/mouse) BIW x 3 weeks, n=8
  Mean tumor volume: 52.02 mm^3
[1]; Day 12, same model and dosing (Table 2)
  Mean tumor volume: 72.22 mm^3
[1]; Day 12
  Percent inhibition of tumor volume: 14.08%
[1]; Day 15, same model and dosing (Table 2)
  Mean tumor volume: 135.90 mm^3
[1]; Day 15
  Percent inhibition of tumor volume: −4.42%
[1]; Day 18, same model and dosing (Table 2)
  Mean tumor volume: 270.73 mm^3
[1]; Day 18
  Percent inhibition of tumor volume: 6.19%
[1]; Day 22, same model and dosing (Table 2)
  Mean tumor volume: 405.71 mm^3
[1]; Day 22
  Percent inhibition of tumor volume: 15.14%
[1]; Day 25, same model and dosing (Table 2)
  Mean tumor volume: 644.91 mm^3
[1]; Day 25
  Percent inhibition of tumor volume: 19.44%
[1]; Day 29, same model and dosing (Table 2)
  Mean tumor volume: 999.58 mm^3
[1]; Day 29
  Percent inhibition of tumor volume: 20.58%
[1]; Day 32, same model and dosing (Table 2)
  Mean tumor volume: 1395.65 mm^3
[1]; Day 32
  Percent inhibition of tumor volume: 21.74%
[1]; MC38 tumor-bearing C57BL/6 mice, Table 6, FIG. 1-3
  Tumor inhibition (in words): tumor inhibition-promoting properties
[2]
  CD3+ immune cell infiltration of tumor tissue (IHC, in words): significant numbers of CD3+ immune cells infiltrating tumor tissue
